Results reported in patent USRE39591E1, “6-O-substituted ketolides having antibacterial activity” (Abbott Laboratories, priority 1996, dated 2007).
Values after ≈ are worked out from the molar mass of the structure shown.

Tested on: up to 32 different microorganisms
Assay: in vitro antibacterial activity (MIC), agar dilution on Brain Heart Infusion (BHI) agar with Steers replicator
Format: cell-based
Conditions: unit assumed
Protocol: Representative compounds of the present invention were assayed in vitro for antibacterial activity as follows: Twelve petri dishes containing successive aqueous dilutions of the test compound mixed with 10 mL of sterilized Brain Heart Infusion (BHI) agar (Difco 0148-01-5) were prepared. Each plate was inoculated with 1:100 (or 1:10 for slow-growing strains, such as Micrococcus and Streptococcus) dilutions of up to 32 different microorganisms, using a Steers replicator block. The inoculated plates were incubated at 35°-37° C. for 20 to 24 hours. In addition, a control plate, using BHI agar containing no test compound, was prepared and incubated at the beginning and end of each test.
An additional plate containing a compound having known susceptibility patterns for the organisms being tested and belonging to the same antibiotic class as the test compound was also prepared and incubated as a further control, as well as to provide test-to-test comparability. Erythromycin A was used for this purpose.
After incubation, each plate was visually inspected. The minimum inhibitory concentration (MIC) was defined as the lowest concentration of drug yielding no growth, a slight haze, or sparsely isolated colonies on the inoculum spot as compared to the growth control.

| SMILES | MIC (organism code AA) [µg/mL] | MIC (organism code CC) [µg/mL] | MIC (organism code DD) [µg/mL] | MIC (organism code EE) [µg/mL] | MIC (organism code FF) [µg/mL] | MIC (organism code GG) [µg/mL] | MIC (organism code HH) [µg/mL] | MIC (organism code II) [µg/mL] | MIC (organism code JJ) [µg/mL] | MIC (organism code KK) [µg/mL] | MIC (organism code LL) [µg/mL] | MIC (organism code MM) [µg/mL] | MIC (organism code NN) [µg/mL] | MIC (organism code OO) [µg/mL] | MIC (organism code PP) [µg/mL] | MIC (organism code QQ) [µg/mL] | MIC (organism code RR) [µg/mL] | MIC (organism code SS) [µg/mL] | MIC (organism code TT) [µg/mL] | MIC (organism code UU) [µg/mL] | also measured |
| --- | --- | --- | --- | --- | --- | --- | --- | --- | --- | --- | --- | --- | --- | --- | --- | --- | --- | --- | --- | --- | --- |
| CCC1OC(=O)C(C)C(=O)C(C)C(OC2OC(C)CC(N(C)C)C2O)C(C)(OCC=Cc2ccc3cc(O)c(C(=O)Nc4ccccc4OC)cc3c2)CC(C)C(=O)C(C)C2NC(=O)OC12C (centres unmarked) [Example 206, R is —CH2CH═CH-(3-hydroxy-2-(N-(2-methoxyphenyl)amido)-7-napthyl)] | 0.78 (≈ 0.839 µM) | > 100 | 0.78 (≈ 0.839 µM) | 0.78 (≈ 0.839 µM) | 0.78 (≈ 0.839 µM) | > 100 | 0.78 (≈ 0.839 µM) | 0.39 (≈ 0.419 µM) | 0.1 (≈ 0.108 µM) | 0.39 (≈ 0.419 µM) | 0.39 (≈ 0.419 µM) | > 100 | 1.56 (≈ 1.68 µM) | 0.2 (≈ 0.215 µM) | 1.56 (≈ 1.68 µM) | > 100 | 25 (≈ 26.9 µM) | > 100 | > 100 | 3.1 (≈ 3.33 µM) | MIC (organism code BB): 0.39 µg/mL (≈ 0.419 µM); MIC (organism code VV): 3.1 µg/mL (≈ 3.33 µM); MIC (organism code WW): > 128 µg/mL; MIC (organism code XX): 0.5 µg/mL (≈ 0.538 µM); MIC (organism code YY): 0.5 µg/mL (≈ 0.538 µM); MIC (organism code ZZ): > 128 µg/mL; MIC (organism code ZZA): 4 µg/mL (≈ 4.3 µM) |
| CCC1OC(=O)C(C)C(=O)C(C)C(OC2OC(C)CC(N(C)C)C2O)C(C)(OCC=Cc2ccc3nccnc3c2)CC(C)C(=O)C(C)C2NC(=O)OC12C (centres unmarked) [Example 207, R is —CH2CH═CH-(6-quinoxalinyl)] | 0.1 (≈ 0.13 µM) | > 100 | 0.1 (≈ 0.13 µM) | 0.1 (≈ 0.13 µM) | 0.1 (≈ 0.13 µM) | > 100 | 0.1 (≈ 0.13 µM) | 0.02 (≈ 0.0261 µM) | ≤ 0.005 | ≤ 0.005 | 0.01 (≈ 0.013 µM) | 1.56 (≈ 2.03 µM) | 0.2 (≈ 0.261 µM) | 0.01 (≈ 0.013 µM) | 0.1 (≈ 0.13 µM) | 25 (≈ 32.6 µM) | 0.2 (≈ 0.261 µM) | 50 (≈ 65.2 µM) | > 100 | 0.39 (≈ 0.509 µM) | MIC (organism code BB): 0.1 µg/mL (≈ 0.13 µM); MIC (organism code VV): 0.02 µg/mL (≈ 0.0261 µM); MIC (organism code WW): 2 µg/mL (≈ 2.61 µM); MIC (organism code XX): 0.015 µg/mL (≈ 0.0196 µM); MIC (organism code YY): 0.015 µg/mL (≈ 0.0196 µM); MIC (organism code ZZ): 64 µg/mL (≈ 83.4 µM); MIC (organism code ZZA): 0.5 µg/mL (≈ 0.652 µM) |
| CCC1OC(=O)C(C)C(=O)C(C)C(OC2OC(C)CC(N(C)C)C2O)C(C)(OCC=Cc2cnc3ccc(O)cc3c2)CC(C)C(=O)C(C)C2NC(=O)OC12C (centres unmarked) [Example 208, R is —CH2CH═CH-(6-hydroxy-3-quinolyl)] | 0.1 (≈ 0.128 µM) | > 100 | 0.2 (≈ 0.256 µM) | 0.2 (≈ 0.256 µM) | 0.2 (≈ 0.256 µM) | > 100 | 0.2 (≈ 0.256 µM) | 0.1 (≈ 0.128 µM) | 0.01 (≈ 0.0128 µM) | 0.01 (≈ 0.0128 µM) | 0.01 (≈ 0.0128 µM) | 0.78 (≈ 0.998 µM) | 0.39 (≈ 0.499 µM) | 0.01 (≈ 0.0128 µM) | 0.1 (≈ 0.128 µM) | 25 (≈ 32 µM) | 0.39 (≈ 0.499 µM) | 50 (≈ 63.9 µM) | > 100 | 0.78 (≈ 0.998 µM) | MIC (organism code BB): 0.39 µg/mL (≈ 0.499 µM); MIC (organism code VV): 0.2 µg/mL (≈ 0.256 µM); MIC (organism code WW): 2 µg/mL (≈ 2.56 µM); MIC (organism code XX): 0.03 µg/mL (≈ 0.0384 µM); MIC (organism code YY): 0.03 µg/mL (≈ 0.0384 µM); MIC (organism code ZZ): 4 µg/mL (≈ 5.12 µM); MIC (organism code ZZA): 1 µg/mL (≈ 1.28 µM) |
| CCC1OC(=O)C(C)C(=O)C(C)C(OC2OC(C)CC(N(C)C)C2O)C(C)(OCC=Cc2cnc3ccc(OC)cc3c2)CC(C)C(=O)C(C)C2NC(=O)OC12C (centres unmarked) [Example 209, R is —CH2CH═CH-(6-methoxy-3-quinolyl)] | 0.05 (≈ 0.0628 µM) | > 100 | 0.1 (≈ 0.126 µM) | 0.1 (≈ 0.126 µM) | 0.1 (≈ 0.126 µM) | > 100 | 0.1 (≈ 0.126 µM) | 0.02 (≈ 0.0251 µM) | 0.01 (≈ 0.0126 µM) | 0.01 (≈ 0.0126 µM) | 0.01 (≈ 0.0126 µM) | 3.1 (≈ 3.89 µM) | 0.1 (≈ 0.126 µM) | 0.01 (≈ 0.0126 µM) | 0.2 (≈ 0.251 µM) | 100 (≈ 126 µM) | 0.2 (≈ 0.251 µM) | > 100 | > 100 | 0.78 (≈ 0.98 µM) | MIC (organism code VV): 0.02 µg/mL (≈ 0.0251 µM); MIC (organism code WW): 2 µg/mL (≈ 2.51 µM); MIC (organism code XX): 0.03 µg/mL (≈ 0.0377 µM); MIC (organism code YY): 0.03 µg/mL (≈ 0.0377 µM); MIC (organism code ZZ): 4 µg/mL (≈ 5.03 µM); MIC (organism code ZZA): 0.5 µg/mL (≈ 0.628 µM) |
